According to US20230048678A1, “ICAN DERIVATIVES FOR ANTIFUNGAL USE” (DEBRECENI EGYETEM, priority 2019, published 2023):

Assays:
[1] = test system: C. albicans SC5314; experiment: CLSI broth microdilution susceptibility (Table 1); format: cell-based; conditions: 48 h, 35° C.
Protocol: (§1) ICAN has 3 key moieties, namely the amino, naphthalene and isonitrile. To find out which ones of them are essential for the antifungal behavior and to design more efficient derivatives, comparative studies were carried out, where one of the moieties was exchanged or eliminated. All ICAN derivatives were tested against C. albicans SC5314, C. krusei ATCC 6258 and C. parapsilosis ATCC 22019. The antifungal agents were dissolved in 100% DMSO and diluted further in RPMI-1640 (with L-glutamine but without bicarbonate) and buffered to pH 7.0 with 0.165 M morpholinopropanesulfonic acid (MOPS). MICs were read visually after 48-h incubation at 35° C. using the partial (50%) inhibition (for ICAN derivatives) (PI) and total inhibition (for AMB and ICAN derivatives) (TI) criteria. MICs were determined at least twice.
(§2) The tested C. albicans, C. tropicalis, C. parapsilosis, C. glabrata and C. krusei ATCC strains and clinical isolates are listed in Table 2. MICs were determined according to the CLSI M27-A3 [22]. Antifungal agents were dissolved in 100% DMSO and diluted further in RPMI-1640 (with L-glutamine but without bicarbonate) (Sigma, Budapest, Hungary), and buffered to pH 7.0 with 0.165 M morpholinopropanesulfonic acid (MOPS; Sigma, Budapest, Hungary). The final concentration ranges used for AMB and ICAN derivatives were 0.125 to 4 μg/ml and 0.04 to 20 μg/ml, respectively. Yeast cell suspensions were prepared in RPMI 1640 medium and were adjusted to give a final inoculum concentration of 0.5×10^3 to 2.5×10^3 cells/ml. MICs were read visually after 48-h incubation at 35° C. using the partial (50%) inhibition (for ICAN derivatives) (PI) and total inhibition (for AMB and ICAN derivatives) (TI) criteria. MICs were determined at least twice. For amphotericin B isolates with MIC values of ≤2 mg/L were considered wild-types. [Pfaller M A, 2012]

[2] = test system: C. krusei ATCC 6258; experiment: CLSI broth microdilution susceptibility (Table 1); format: cell-based; conditions: 48 h, 35° C.
Protocol: as §1, §2

[3] = test system: C. parapsilosis ATCC 22019; experiment: CLSI broth microdilution susceptibility (Table 1); format: cell-based; conditions: 48 h, 35° C.
Protocol: as §1, §2

[4] = test system: C. albicans SC5314, C. krusei ATCC 6258 and C. parapsilosis ATCC 22019; experiment: CLSI broth microdilution, MIC summarised over the three Candida test strains; format: cell-based; conditions: value or range over the three Candida strains of Table 1, total inhibition
Protocol: as §1, §2

[5] = test system: human cell cultures; experiment: MTT bio assay cytotoxicity; format: cell-based; conditions: MTT bio assay technique
[6] = test system: C. albicans 3666; experiment: Time-lapse imaging of fungal growth in infected HaCat cultures; format: cell-based; conditions: 7.5 μg/ml, HaCat cells infected with C. albicans 3666, 24 h; DMSO control exceeded 1000%
From the text: As we mentioned in the Background art, studies have been carried out to successfully utilize 1-N-methylamino-5-isocyanonaphthalene (MICAN) as vital cell dye on different human cell lines [Nagy Z L, 2018]. […] Since these dyes are nonpolar, they are expected to easily bind to and stain the nonpolar chitin in the cell wall of different fungi species. We tested this assumption on common yeast from a local shop, and much to our surprise after staining, the yeast cells stopped growing and died in a short time. Repeated experiments led to the same conclusion; however, the applied dye concentration was well below the LD50 determined for human cells. […] It should be noted, however, that in the case of the untreated HaCat cells the fungal growth exceeded 1000% (24 h) calculated from the hyphal area (FIG. 1b, DMSO control). […]
Image analysis plug-ins were developed by a Java-based image processing software, The ImageJ v1.39d (US National Institutes of Health) program enabled the quantitative analysis of fungi. The software is requesting a set of data for the analysis from the user, along with the directory in which the bank of images to be analysed are contained. Image processing and quantitative image analysis were carried out as previously described [Nagy G, 2014]. […]

[7] = test system: HaCat cells; experiment: HaCat cell damage during time-lapse imaging; format: cell-based, human; conditions: under 24 hours, MICAN-treated infected cultures
From the text: (§3) As we mentioned in the Background art, studies have been carried out to successfully utilize 1-N-methylamino-5-isocyanonaphthalene (MICAN) as vital cell dye on different human cell lines [Nagy Z L, 2018]. […] Since these dyes are nonpolar, they are expected to easily bind to and stain the nonpolar chitin in the cell wall of different fungi species. We tested this assumption on common yeast from a local shop, and much to our surprise after staining, the yeast cells stopped growing and died in a short time. Repeated experiments led to the same conclusion; however, the applied dye concentration was well below the LD50 determined for human cells. We assumed that these compounds may have antifungal effect, therefore C. albicans, one of the most common human pathogenic fungi was selected for further tests. HaCat cell cultures (spontaneously transformed aneuploid immortal keratinocyte cells from adult human skin) were infected with C. albicans 3666 (same isolate as used in animal experiments) and were treated with different concentrations of MICAN dissolved in DMSO. The fungal growth was followed by time lapse imaging for 24 hours. […] It should be noted, however, that in the case of the untreated HaCat cells the fungal growth exceeded 1000% (24 h) calculated from the hyphal area (FIG. 1b, DMSO control).

[8] = test system: commercial strain of Saccharomyces cerevisiae; experiment: Staining/growth of common yeast; format: cell-based
From the text: as §3

## [C-]#[N+]c1cccc2c(NC)cccc12 [MICAN, N-methyl-1-amino-5-isocyanonaphthalene]
[1]; partial (50%) inhibition
  MICPI: 0.3 µg/mL
[1]; total inhibition
  MICTI: 1.25 µg/mL
[2]; partial (50%) inhibition
  MICPI: 0.15 µg/mL
[2]; total inhibition
  MICTI: 1.25 µg/mL
[3]; partial (50%) inhibition
  MICPI: 0.15 µg/mL
[3]; total inhibition
  MICTI: 0.75 µg/mL
[4]
  MICTI: 0.75 to 1.25 µg/mL
[5]
  LD50: 18 µg/mL
[6]
  fungal growth calculated from the hyphal area: ~30%
[7]
  damage of treated HaCat cells: no sign of damage
[8]
  antifungal effect on yeast: effective
